Non-standard residues stand in square brackets, D forms with d. No end group written: not given here. *: point of attachment. prenyl = prenyl group added to Trp by KgpF, CC(C)=CC*
Key:
[1] = biological target: MetAP1 (Homo sapiens, UniProt P53582); assay: MetAP1 inhibition test of prenylated cyclic peptide (probe fluorescence); assay type: biochemical; details: prenylated peptide at 1 μM, 5 μM or 10 μM; cofactor Mn2+ or Co2+ 100 μM; MetAP1 1 μM; 37° C., 120 min (FIG. 13)
Method: A MetAP1 inhibition test was performed in vitro using the prenylated Met2, Met3a-L, and Met3-1 at concentrations of 1 μM, 5 μM or 10 μM in the presence of a MetAP1 cofactor Mn^2+ or Co^2+. In the test, enzymatic activity was measured by detecting probe fluorescence, that is, fluorescence emitted depending on the enzymatic activity of MetAP1.
(Conditions) • Scale: 20 μL • Cyclic peptide: 1, 5, 10 μM • MnCl2 or CoCl2: 100 μM • MetAP1 enzymatic activity probe: 1 μM • MetAP1: 1 μM • Tris (pH7.6): 25 mM • NaCl: 75 mM • Reaction: 37° C., 120 min.
After the reaction, the fluorescence intensity of the probe was measured using a plate reader.

[2] = test system: KgpF; assay: Prenylation of artificial cyclic peptides with 160 μM KgpF at 0° C., 20 hours (Conditions 13/14 and 19/20; Examples 10, 14, 19; Tables 6 and 18); assay type: biochemical, Microcystis aeruginosa; set-up: key: 5: strong intensity; 4: medium intensity; 3: weak intensity; 2: very weak intensity; 1: no peak; N/A: not observed; details: Table 18; Conditions 13 and 14 (160 μM KgpF, 0° C., 20 hours); NSGGVS added to C terminal
Method: The artificial cyclic peptides Clone-M1 to M9 shown below were obtained by translation and synthesis in the artificial translation system (Conditions 13) developed by the present inventors. The peptides thus obtained were then reacted with 160 μM KgpF in the system shown in (Conditions 14) at 0° C. for 20 hours.
(Conditions 13) • FIT system: v8s/v11.0 • 19aa-Met: 0.5 mM • ClAc-D-Tyr-tRNA^fMetCUA: 90 μM • Reaction: 37° C., 60 min. • Scale: 2.5 μL scale
After the above reaction was performed, the reaction product was incubated at 25° C. for 12 minutes.
Then, a cyclization reaction was performed under the following conditions. • Translated mixture amount: 2.5 μL (mixture obtained by the above reaction) • EDTA: 18 mM • Reaction: 42° C., 60 min. • Scale: 2.75 μL scale
(Conditions 14) • Translated mixture amount: 2.75 μL (mixture obtained under (Conditions 13)) • KOH: 6.0 mM • Mg(OAc)2: 9.0 mM • Tris-HCl (pH 8.3) 15 mM • KgpF: 160 μM • DMAPP: 2 mM • Reaction: 0° C., 20 hours
The artificial cyclic peptides shown below were obtained by translation and synthesis in the artificial translation system (Conditions 19) developed by the present inventors. The peptides thus obtained were then reacted with 160 μM KgpF in the system shown in (Conditions 20) at 0° C. for 20 hours.
(Conditions 19) • FIT system: v8s/11.0 • 19aa-Met: 0.5 mM • ClAc-D-Tyr-tRNA^fMetCUA: 90 μM • Reaction: 37° C., 60 min. • Scale: 2.5 μL scale
(Conditions 20) • Translated mixture amount: 2.75 μL (mixture obtained under (Conditions 19)) • KOH: 6.0 mM • Mg(OAc)2: 9.0 mM • Tris-HCl (pH 8.3): 15 mM • KgpF: 160 μM • DMAPP: 2 mM • Reaction: 0° C., 20 hours
Then, the compound library was provided for a step of screening cyclic peptides having interaction with an enzyme MetAP1 (Human) as in the scheme shown in FIG. 8. It has been confirmed that with regards to some of the peptides shown in FIG. 10, peptides having these sequences are modified by prenylation as shown in Table 18 by bringing them into contact with KgpF under conditions shown in (Conditions 13) and (Conditions 14).
Target sequence in this assay (as listed by the source): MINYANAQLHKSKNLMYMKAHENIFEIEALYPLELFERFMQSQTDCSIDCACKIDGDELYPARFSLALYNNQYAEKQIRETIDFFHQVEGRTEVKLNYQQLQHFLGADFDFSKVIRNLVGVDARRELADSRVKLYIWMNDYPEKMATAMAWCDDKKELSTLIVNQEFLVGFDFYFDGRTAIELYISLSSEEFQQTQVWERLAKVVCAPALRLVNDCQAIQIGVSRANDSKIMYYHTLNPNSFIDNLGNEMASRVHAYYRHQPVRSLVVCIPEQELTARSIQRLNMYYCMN

[3] = test system: KgpF; details: literature finding; cited from earlier work

Compound | inhibition of the enzymatic activity of MetAP1 [1] | Peak intensity, The number of prenyl groups added 0 [2] | Peak intensity, The number of prenyl groups added 1 [2] | prenylation by KgpF [3]
Met3: prenylated cyclic peptide identified by screening with MetAP1 as a target (Ac-[dY]KRKAW(prenyl)ICQTAVYCNSGGVS; thioether (positions not given here); not fully specified (C-terminus)) | inhibit the enzymatic activity of MetAP1 | 2 | 5 | 
O=C(N[C@@H](Cc1c[nH]c2ccccc12)C(=O)O)OCC1c2ccccc2-c2ccccc21 [Fmoc-Trp-OH] |  |  |  | low efficiency
Met2: cyclic peptide SEQ ID NO: 361 from MetAP1 screening, Fmoc solid-phase synthesis, prenylated with KgpF (YKRRHCLPPAWG; also: cyclic, ring not given here, prenylated with KgpF) | inhibit the enzymatic activity of MetAP1 |  |  | 
Cyclic [WLNGDNNWSTP]: main-chain cyclized peptide of 11 residues formed from precursor peptide KgpE; natural substrate giving Kawaguchipeptin A (SEQ ID NO: 386) (main-chain cyclized) |  |  |  | prenylates two Trp residues

Reference: patent US20220275534A1, “Peptide Library Production Method” (The University of Tokyo, priority 2018, published 2022)
